Laboratory results reported in patent US10954231B2, “Anxiolytic compounds” (Bionomics Limited, priority 2006, dated 2021).

Columns and labels:
Assay type in all cases: in vivo
mice [1] = assay: Light dark test; conditions: oral, 60 min before test; for minimal effective dose at 20 mg/kg: Mus musculus, 1 h, for examples marked * 20 mg/kg is the only dose tested, read-out: LD: minimum effective dose; for LD: significant anxiolytic effect (number of significant parameters): parameters: time spent in lit area, transitions into lit area, total walked distance in lit area
Excerpt: The light dark paradigm is based on a conflict between the innate aversion of rodents to brightly illuminated areas and on the spontaneous exploratory behaviour of the mice. If given a choice between a large brightly compartment versus a small dark compartment they spontaneously prefer the dark part.
The apparatus consists of two PVC (polyvinylchloride) boxes (19×19×15 cm) covered with Plexiglas. One of these boxes is darkened. The other box is illuminated by 100 W desk lamp placed 15 cm above and providing an illumination of about 4400 Lux. An opaque plastic tunnel (5×7×10 cm) separates the dark box from the illuminated one.
Animals were placed individually in the lit box, with head directed towards the tunnel. The time spent in the lit box and the number of transitions between the two boxes was recorded over a 5 min period after the first entry of the animal in the dark box. The total walked distance in the lit box was also recorded. Animals scored without entry into the […] were excluded from the analysis.
The compounds in Table 1 were tested in the light-dark test (indicated in the LD column). +=a significant anxiolytic effect in one of the three parameters measured in the LD model, ++ represents a significant effect in 2 parameters and +++ is significance in all three. The parameters are: time spent in the lit area, number of transitions into the lit area, or total walked distance in the lit area.
The test compound was prepared in 5% PEG400-0.9% NaCl.
(§1) It was administrated orally, 60 minutes before the implementation of the test.

mice [2] = assay: Open field (dark), spontaneous motor activity; set-up: key to OF: sedation: NS: no sedation; S: sedation; conditions: oral, 60 min before test; for OF: sedation: 20 min recording; for OF: maximum non-sedating dose: for examples marked * 20 mg/kg is the only dose tested
Excerpt: The open field (dark) is used to measure the spontaneous motor activity of mice in a quiet, dark environment. This system is useful for discriminating the sedating or stimulating properties of test compounds on spontaneous locomotion and can thus provide a preliminary indication of potentially adverse effects such as sedation.
The apparatus is an open plexiglass cage (52×52 cm) with 40 cm walls. The animal's movements are tracked by a computerised video tracking system, consisting of an overhead camera, diode sensors placed underneath the floor of the cage, computer and video analyser software (ViewPoint, France). The video camera is placed at 2.50 m above the cage and connected to the computer via a video capture card (Pinnacle Systems, France). The video tracking system is set in a way that the floor of the OF is divided into nine equal squares. The total number of crossed squares and the total walked distance are recorded.
Each animal is singly placed in a corner of the apparatus and its locomotor activity is automatically recorded over a period of 20 minutes.
The apparatus is cleaned between each animal with alcohol (70%).
The below items were tested in the Open Field as indicated by an entry in the OF column. NS=no sedation; S=sedation. The maximum non-sedating dose in mg/kg is shown.
Test compound was prepared in 5% PEG400−0.9% NaCl. It was administered orally, 60 minutes before the implementation of the test.

rat = assay: Elevated plus maze; set-up: key to EPM rat: significant anxiolytic effect (number of significant parameters): +: a significant anxiolytic effect in one of the three parameters measured in the LD model; ++: represents a significant effect in 2 parameters; +++: is significance in all three; conditions: oral, 60 min before test
mice [3] = assay: Marble burying test; conditions: oral, 60 min before test, 20 min session
Excerpt: The Marble Burying test is used as a model for both anxiety and obsessive compulsive disorders. Mice have a natural tendency to bury marbles under the bedding when placed in a cage with rows of evenly spaced marbles on the floor. Suppression of this spontaneous burying has been used as a measure of anxiolytic drug action. Mice pre-treated with benzodiazepines and different classes of antidepressants bury less marbles when compared to the control mice
The apparatus consists of transparent polycarbonate cages (30 cm×18 cm×19 cm) containing a 5 cm layer of fine sawdust bedding and 20 glass marbles (diameter: 1.5 cm) spaced evenly along the walls of the cage. Each animal is placed individually in the cage where it remains for a 20 min test session. On termination of the test session the animals are removed from the cage and the number of marbles at least two-thirds buried in the sawdust is recorded.
Example 1 was tested in the Marble Burying model. The minimum effective dose in mg/kg is indicated in the MB column in Table 1.
The test compound was prepared in 5% PEG400−0.9% NaCl.
as §1

CCn1cc(C(=O)N2CCN(C)CC2)c(=O)c2cc(NC3Cc4ccccc4C3)cnc21 [Example 4, Methylpiperazino 6-(2,3-dihydro-1H-inden-2-ylamino)-1-ethyl-1,4-dihydro-4-oxo-1,8-naphthyridine-3-carboxamide]
minimal effective dose at 20 mg/kg (mice [1]): 20 mg/kg
LD: significant anxiolytic effect (number of significant parameters) (mice [1]): ++

CCN(CC)C(=O)c1cn(CC)c2ncc(NC3Cc4ccccc4C3)cc2c1=O [Example 6]
minimal effective dose at 20 mg/kg (mice [1]): 20 mg/kg
LD: significant anxiolytic effect (number of significant parameters) (mice [1]): ++
OF: sedation (mice [2]): NS
OF: maximum non-sedating dose (mice [2]): 20 mg/kg

CCn1cc(C(=O)N2CCOCC2)c(=O)c2nc(NC3Cc4ccccc4C3)ccc21 [Example 2, Morpholino 6-(2,3-dihydro-1H-inden-2-ylamino)-1-ethyl-1,4-dihydro-4-oxo-1,5-naphthyridine-3-carboxamide]
minimal effective dose at 20 mg/kg (mice [1]): 30 mg/kg
LD: significant anxiolytic effect (number of significant parameters) (mice [1]): +++
OF: sedation (mice [2]): S
OF: maximum non-sedating dose (mice [2]): 5 mg/kg

CCn1cc(C(=O)Nc2ccc(-c3ccccc3)cc2)c(=O)c2cc(NC3Cc4ccccc4C3)cnc21 [Example 9, 4-biphenylamino-6-(2,3-dihydro-1H-inden-2-ylamino)-1-ethyl-1,4-dihydro-4-oxo-1,8-naphthyridine-3-carboxamide]
minimal effective dose at 20 mg/kg (mice [1]): 20 mg/kg
LD: significant anxiolytic effect (number of significant parameters) (mice [1]): +++
OF: sedation (mice [2]): NS
OF: maximum non-sedating dose (mice [2]): 20 mg/kg

CCn1cc(C(=O)N2CCOCC2)c(=O)c2cc(NC3Cc4ccccc4C3)ncc21 [Example 3, morpholino 6-(2,3-dihydro-1H-inden-2-ylamino)-1-ethyl-1,4-dihydro-4-oxo-1,7-naphthyridine-3-carboxamide]
LD: significant anxiolytic effect (number of significant parameters) (mice [1]): ++

CCn1cc(C(=O)N2CCOCC2)c(=O)c2cc(NC3Cc4ccccc4C3)cnc21 [Example 1, Morpholino 6-(2,3-dihydro-1H-inden-2-yl)amino-1-ethyl-1,4-dihydro-4-oxo-1,8-naphthyridine-3-carboxamide]
LD: significant anxiolytic effect (number of significant parameters) (mice [1]): ++
OF: sedation (mice [2]): NS
OF: maximum non-sedating dose (mice [2]): 100 mg/kg
EPM rat: minimum effective dose (rat): 0.1 mg/kg
EPM rat: significant anxiolytic effect (number of significant parameters) (rat; parameters: time spent in open arms, transitions into open arms, total walked distance in open arms): +++
MB: minimum effective dose (mice [3]): 1 mg/kg

CCOC(=O)c1cn(CC)c2ncc(NC(=O)C(C)C)cc2c1=O [Example 10, Ethyl 6-(isobutyrylamide)-1-ethyl-1,4-dihydro-4-oxo-1,8-naphthyridine-3-carboxylate]
minimal effective dose at 20 mg/kg (mice [1]): 20 mg/kg
LD: significant anxiolytic effect (number of significant parameters) (mice [1]): +++
OF: sedation (mice [2]): NS
OF: maximum non-sedating dose (mice [2]): 20 mg/kg

CCn1cc(C(=O)Nc2ccc(F)cc2)c(=O)c2cc(NC3Cc4ccccc4C3)cnc21 [Example 8]
minimal effective dose at 20 mg/kg (mice [1]): 20 mg/kg
LD: significant anxiolytic effect (number of significant parameters) (mice [1]): ++
OF: sedation (mice [2]): NS
OF: maximum non-sedating dose (mice [2]): 20 mg/kg

CCn1cc(C(=O)NC2CC2)c(=O)c2cc(NC3Cc4ccccc4C3)cnc21 [Example 5, Cyclopropylamino 6-(2,3-dihydro-1H-inden-2-ylamino)-1-ethyl-1,4-dihydro-4-oxo-1,8-naphthyridine-3-carboxamide]
minimal effective dose at 20 mg/kg (mice [1]): 20 mg/kg
LD: significant anxiolytic effect (number of significant parameters) (mice [1]): +

CCOC(=O)c1cn(CC)c2ncc(NC(=O)c3cc(OC)c(OC)c(OC)c3)cc2c1=O [Example 7, Ethyl 6-(3,4,5-trimethoxybenzoylamide)-1-ethyl-1,4-dihydro-4-oxo-1,8-naphthyridine-3-carboxylate]
minimal effective dose at 20 mg/kg (mice [1]): 20 mg/kg
LD: significant anxiolytic effect (number of significant parameters) (mice [1]): ++
OF: sedation (mice [2]): S
OF: maximum non-sedating dose (mice [2]): 20 mg/kg
